Results as given in US10167262B2, “Herbicidal substituted 3-arylpyrazoles” (FMC CORPORATION, priority 2014, dated 2019).

Experiments:
Assay in all cases: Test E pre-/postemergence greenhouse test, plant response rating 0-100
Assay type in all cases: in vivo
[1] = tested on: hairy beggarticks (Bidens pilosa); details: scale 0 to 100; for Plant response rating, Beggarticks: Postemergence; for Beggarticks plant response rating: Preemergence
Method in brief: (§1)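 Seeds sown in silt loam soil received preemergence treatment with compound in a non-phytotoxic solvent mixture containing surfactant. Postemergence, plants at 2–18 cm (1- to 4-leaf stage) in peat/vermiculite medium were sprayed with the same formulation. Visual injury versus untreated controls was rated 0–100 after 14 to 21 days in the greenhouse.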

[2] = tested on: dayflower (Virginia (VA) dayflower, Commelina virginica); details: scale 0 to 100; for Plant response rating, Dayflower, VA: Postemergence
Method in brief: as §1

[3] = tested on: fall panicum (Panicum dichotomiflorum); details: scale 0 to 100; for Plant response rating, Panicum, Fall: Postemergence; for Panicum, Fall plant response rating: Preemergence
Method in brief: as §1

[4] = tested on: corn (Zea mays); details: scale 0 to 100; for Plant response rating, Corn: Postemergence; for Corn plant response rating: Preemergence
Method in brief: as §1

[5] = tested on: waterhemp (common waterhemp, Amaranthus rudis); details: scale 0 to 100; for Plant response rating, Waterhemp: Postemergence; for Waterhemp plant response rating: Preemergence
Method in brief: as §1

[6] = tested on: Italian ryegrass (Lolium multiflorum); details: scale 0 to 100; for Plant response rating, Ryegrass, Italian: Postemergence; for Ryegrass, Italian plant response rating: Preemergence
Method in brief: as §1

[7] = tested on: barnyardgrass (Echinochloa crus-galli); details: scale 0 to 100; for Plant response rating, Barnyardgrass: Postemergence; for Barnyardgrass plant response rating: Preemergence
Method in brief: as §1

[8] = tested on: field bindweed (Convolvulus arvensis); details: scale 0 to 100; for Plant response rating, Field Bindweed: Postemergence; for Field Bindweed plant response rating: Preemergence
Method in brief: as §1

[9] = tested on: wild poinsettia (Euphorbia heterophylla); details: scale 0 to 100; for Plant response rating, Poinsettia, Wild: Postemergence; for Poinsettia, Wild plant response rating: Preemergence
Method in brief: as §1

[10] = tested on: soybean (Glycine max); details: scale 0 to 100; for Plant response rating, Soybean: Postemergence; for Soybean plant response rating: Preemergence
Method in brief: as §1

[11] = tested on: Brazilian crabgrass (Digitaria horizontalis); details: Postemergence, scale 0 to 100
Method in brief: as §1

[12] = tested on: sandbur (southern sandbur, Cenchrus echinatus); details: scale 0 to 100; for Plant response rating, Sandbur: Postemergence; for Sandbur plant response rating: Preemergence
Method in brief: as §1

O=C(c1ccccc1)c1cn(S(=O)(=O)C(F)(F)F)nc1-c1cc(Cl)cc(Cl)c1 [Compound 2]
Plant response rating, Beggarticks ([1]; 31 g ai/ha): 80 | Plant response rating, Beggarticks ([1]; 62 g ai/ha): 90 | Plant response rating, Beggarticks ([1]; 125 g ai/ha): 100 | Plant response rating, Beggarticks ([1]; 250 g ai/ha): 100 | Plant response rating, Beggarticks ([1]; 500 g ai/ha): 100 | Beggarticks plant response rating ([1]; 31 g ai/ha): 0 | Beggarticks plant response rating ([1]; 62 g ai/ha): 0 | Beggarticks plant response rating ([1]; 125 g ai/ha): 0 | Beggarticks plant response rating ([1]; 250 g ai/ha): 0 | Beggarticks plant response rating ([1]; 500 g ai/ha): 0 | Plant response rating, Dayflower, VA ([2]; 31 g ai/ha): 0 | Plant response rating, Dayflower, VA ([2]; 62 g ai/ha): 0 | Plant response rating, Dayflower, VA ([2]; 125 g ai/ha): 0 | Plant response rating, Dayflower, VA ([2]; 250 g ai/ha): 0 | Plant response rating, Dayflower, VA ([2]; 500 g ai/ha): 0 | Dayflower, VA plant response rating ([2]; Preemergence, 62 g ai/ha): 0 | Plant response rating, Panicum, Fall ([3]; 31 g ai/ha): 0 | Plant response rating, Panicum, Fall ([3]; 62 g ai/ha): 0 | Plant response rating, Panicum, Fall ([3]; 125 g ai/ha): 0 | Plant response rating, Panicum, Fall ([3]; 250 g ai/ha): 25 | Plant response rating, Panicum, Fall ([3]; 500 g ai/ha): 40 | Panicum, Fall plant response rating ([3]; 31 g ai/ha): 0 | Panicum, Fall plant response rating ([3]; 62 g ai/ha): 0 | Panicum, Fall plant response rating ([3]; 125 g ai/ha): 0 | Panicum, Fall plant response rating ([3]; 250 g ai/ha): 0 | Panicum, Fall plant response rating ([3]; 500 g ai/ha): 0 | Plant response rating, Corn ([4]; 31 g ai/ha): 0 | Plant response rating, Corn ([4]; 62 g ai/ha): 0 | Plant response rating, Corn ([4]; 125 g ai/ha): 0 | Plant response rating, Corn ([4]; 250 g ai/ha): 0 | Plant response rating, Corn ([4]; 500 g ai/ha): 0 | Corn plant response rating ([4]; 31 g ai/ha): 0 | Corn plant response rating ([4]; 62 g ai/ha): 0 | Corn plant response rating ([4]; 125 g ai/ha): 0 | Corn plant response rating ([4]; 250 g ai/ha): 0 | Corn plant response rating ([4]; 500 g ai/ha): 0 | Plant response rating, Waterhemp ([5]; 31 g ai/ha): 90 | Plant response rating, Waterhemp ([5]; 62 g ai/ha): 80 | Plant response rating, Waterhemp ([5]; 125 g ai/ha): 98 | Plant response rating, Waterhemp ([5]; 250 g ai/ha): 98 | Plant response rating, Waterhemp ([5]; 500 g ai/ha): 100 | Waterhemp plant response rating ([5]; 31 g ai/ha): 0 | Waterhemp plant response rating ([5]; 125 g ai/ha): 30 | Waterhemp plant response rating ([5]; 250 g ai/ha): 65 | Waterhemp plant response rating ([5]; 500 g ai/ha): 100 | Plant response rating, Ryegrass, Italian ([6]; 31 g ai/ha): 0 | Plant response rating, Ryegrass, Italian ([6]; 62 g ai/ha): 0 | Plant response rating, Ryegrass, Italian ([6]; 125 g ai/ha): 0 | Plant response rating, Ryegrass, Italian ([6]; 250 g ai/ha): 0 | Plant response rating, Ryegrass, Italian ([6]; 500 g ai/ha): 0 | Ryegrass, Italian plant response rating ([6]; 31 g ai/ha): 0 | Ryegrass, Italian plant response rating ([6]; 62 g ai/ha): 0 | Ryegrass, Italian plant response rating ([6]; 125 g ai/ha): 0 | Ryegrass, Italian plant response rating ([6]; 250 g ai/ha): 0 | Ryegrass, Italian plant response rating ([6]; 500 g ai/ha): 0 | Plant response rating, Barnyardgrass ([7]; 31 g ai/ha): 0 | Plant response rating, Barnyardgrass ([7]; 62 g ai/ha): 0 | Plant response rating, Barnyardgrass ([7]; 125 g ai/ha): 0 | Plant response rating, Barnyardgrass ([7]; 250 g ai/ha): 0 | Plant response rating, Barnyardgrass ([7]; 500 g ai/ha): 0 | Barnyardgrass plant response rating ([7]; 31 g ai/ha): 0 | Barnyardgrass plant response rating ([7]; 62 g ai/ha): 0 | Barnyardgrass plant response rating ([7]; 125 g ai/ha): 0 | Barnyardgrass plant response rating ([7]; 250 g ai/ha): 0 | Barnyardgrass plant response rating ([7]; 500 g ai/ha): 0 | Plant response rating, Field Bindweed ([8]; 31 g ai/ha): 0 | Plant response rating, Field Bindweed ([8]; 62 g ai/ha): 0 | Plant response rating, Field Bindweed ([8]; 125 g ai/ha): 0 | Plant response rating, Field Bindweed ([8]; 250 g ai/ha): 0 | Plant response rating, Field Bindweed ([8]; 500 g ai/ha): 0 | Field Bindweed plant response rating ([8]; 31 g ai/ha): 0 | Field Bindweed plant response rating ([8]; 62 g ai/ha): 0 | Field Bindweed plant response rating ([8]; 125 g ai/ha): 0 | Field Bindweed plant response rating ([8]; 250 g ai/ha): 0 | Field Bindweed plant response rating ([8]; 500 g ai/ha): 0 | Plant response rating, Poinsettia, Wild ([9]; 31 g ai/ha): 0 | Plant response rating, Poinsettia, Wild ([9]; 62 g ai/ha): 0 | Plant response rating, Poinsettia, Wild ([9]; 125 g ai/ha): 0 | Plant response rating, Poinsettia, Wild ([9]; 250 g ai/ha): 0 | Plant response rating, Poinsettia, Wild ([9]; 500 g ai/ha): 0 | Poinsettia, Wild plant response rating ([9]; 62 g ai/ha): 0 | Poinsettia, Wild plant response rating ([9]; 125 g ai/ha): 0 | Poinsettia, Wild plant response rating ([9]; 250 g ai/ha): 0 | Poinsettia, Wild plant response rating ([9]; 500 g ai/ha): 0 | Plant response rating, Soybean ([10]; 31 g ai/ha): 0 | Plant response rating, Soybean ([10]; 62 g ai/ha): 0 | Plant response rating, Soybean ([10]; 125 g ai/ha): 0 | Plant response rating, Soybean ([10]; 250 g ai/ha): 0 | Plant response rating, Soybean ([10]; 500 g ai/ha): 0 | Soybean plant response rating ([10]; 125 g ai/ha): 0 | Soybean plant response rating ([10]; 250 g ai/ha): 0 | Soybean plant response rating ([10]; 500 g ai/ha): 0 | Plant response rating, Crabgrass, Brazil ([11]; 31 g ai/ha): 0 | Plant response rating, Crabgrass, Brazil ([11]; 62 g ai/ha): 0 | Plant response rating, Crabgrass, Brazil ([11]; 125 g ai/ha): 0 | Plant response rating, Crabgrass, Brazil ([11]; 250 g ai/ha): 0 | Plant response rating, Crabgrass, Brazil ([11]; 500 g ai/ha): 0 | Plant response rating, Sandbur ([12]; 31 g ai/ha): 0 | Plant response rating, Sandbur ([12]; 62 g ai/ha): 0 | Plant response rating, Sandbur ([12]; 125 g ai/ha): 0 | Plant response rating, Sandbur ([12]; 250 g ai/ha): 0 | Plant response rating, Sandbur ([12]; 500 g ai/ha): 0 | Sandbur plant response rating ([12]; 31 g ai/ha): 0 | Sandbur plant response rating ([12]; 62 g ai/ha): 0 | Sandbur plant response rating ([12]; 125 g ai/ha): 0 | Sandbur plant response rating ([12]; 250 g ai/ha): 0 | Sandbur plant response rating ([12]; 500 g ai/ha): 0
